Measurements from patent publication US6864068B2, “Antifungal proteins” (Syngenta Limited, priority 1995, dated 2005).

Test system: F culmorum
Assay: Specific antifungal activity of Rs-AFP2 isoforms in SMF− and SMF+ media
Type: cell-based
Set-up: IC50 SMF− / IC50 SMF+: unit not given here
Conditions: for RELATIVE SPECIFIC ACTIVITY (%) IN MEDIUM SMF+ / RELATIVE SPECIFIC ACTIVITY (%) IN MEDIUM SMF−: 1/IC50 of mutant divided by that of yRs-AFP2 x 100, 48 hour incubation, preliminary tests; for RELATIVE SPECIFIC ACTIVITY (%) IN MEDIUM SMF+: SMF with 1 mM CaCl2 and 50 mM KCl; for RELATIVE SPECIFIC ACTIVITY (%) IN MEDIUM SMF−: low ionic strength medium; for IC50 SMF+ / IC50 SMF−: 72 hours growth, triplicate; for IC50 SMF+: high salt medium (1 mM CaCl2, 50 mM KCl); for IC50 SMF− / effect of substitution on antifungal activity in SMF−, in words: low salt medium; for effect of substitution on antifungal activity in SMF+, in words / effect of substitution on antifungal activity in SMF−, in words: Table 2 tests; for effect of substitution on antifungal activity in SMF+, in words: high salt medium; for relative specific antifungal activity (1/IC50), FIG. 6, in words: medium SMF+, Rs-AFP2 set at 100
Description: For each isoform, two independent purifications were carried out and the antifungal activity was determined in duplicate using F culmorum as a test fungus in two different media: a low ionic strength medium called SMF-(Terras et al, 1992, J Biol Chem, 267:15301-15309) and the same medium supplemented with 1 mM CaCl2 and 50 mM KCl called SMF+. The presence of salts in the test medium, especially salts with divalent cations, reduces the specific activity of Rs-AFP2. Seed-purified as well as yeast-expressed wild type Rs-AFP2 served as a control in the assays.
The relative specific activity is expressed as the specific activity of the mutant divided by the specific activity of yRs-AFP2 and multiplied by 100. […] The specific activity was measured in medium SMF−and SMF+.
Deviations are given as standard error of the mean (sem) based on the triplicate experiments. In SMF−, the medium without added salts, most of the derivatives show no decrease or only a minor decrease in antifungal activity, while in SMF+, the medium with added salts, there is a significant decrease in antifungal activity for several Rs-AFP2 isoforms.

Substance | RELATIVE SPECIFIC ACTIVITY (%) IN MEDIUM SMF+ | RELATIVE SPECIFIC ACTIVITY (%) IN MEDIUM SMF− | IC50 SMF+ | IC50 SMF− | antifungal activity compared with yRs-AFP2 in high salt (SMF+), in words (Table 1 tests) | antifungal activity compared with yRs-AFP2 in low salt (SMF−), in words (Table 1 tests) | effect of substitution on antifungal activity in SMF+, in words | effect of substitution on antifungal activity in SMF−, in words | relative specific antifungal activity (1/IC50), FIG. 6, in words | antifungal activity compared with yRs-AFP2, in words (Table 1 tests, SMF− and SMF+)
yRs-AFP2/I26R (QKLCQRPSGTWSGVCGNNNACKNQCRRLEKARHGSCNYVFPAHKCICYFPC; listed as Raphanus sativus) | 82% | 76% | 9.6 | 7.2 |  |  |  |  |  | 
yRs-AFP2/I46R (QKLCQRPSGTWSGVCGNNNACKNQCIRLEKARHGSCNYVFPAHKCRCYFPC; listed as Raphanus sativus) |  | 22% | >40 | 12.0 |  |  |  |  |  | 
yRs-AFP2/G16M (QKLCQRPSGTWSGVCMNNNACKNQCIRLEKARHGSCNYVFPAHKCICYFPC; listed as Raphanus sativus) | 114% | 151% | 5.0 | 2.2 | not so significantly different in high salt | increased activity in low salt | increased antifungal activity | little effect on the antifungal activity | enhanced activity | 
yRs-AFP2/Y38G (QKLCQRPSGTWSGVCGNNNACKNQCIRLEKARHGSCNGVFPAHKCICYFPC; listed as Raphanus sativus) | <4% | 30% | >200 | 42.0 |  |  |  |  |  | 
yRs-AFP2/H33A (QKLCQRPSGTWSGVCGNNNACKNQCIRLEKARAGSCNYVFPAHKCICYFPC; listed as Raphanus sativus) |  |  | >100 | 32.0 |  |  |  |  |  | 
yRs-AFP2/P7-: yeast-expressed Rs-AFP2 isoform with proline deletion at position 7 (QKLCQRSGTWSGVCGNNNACKNQCIRLEKARHGSCNYVFPAHKCICYFPC; listed as Raphanus sativus) | 17% | 8% |  |  |  |  |  |  |  | 
yRs-AFP2/A31W (QKLCQRPSGTWSGVCGNNNACKNQCIRLEKWRHGSCNYVFPAHKCICYFPC; listed as Raphanus sativus) | <5% | 15% | >100 | 30.0 |  |  |  |  |  | 
yRs-AFP2/P7R: yeast-expressed Rs-AFP2 isoform, P7 replaced by arginine (QKLCQRRSGTWSGVCGNNNACKNQCIRLEKARHGSCNYVFPAHKCICYFPC; listed as Raphanus sativus) | 84% | 33% | 8.8 | 6.8 |  |  |  |  |  | 
yRs-AFP2/W11S (QKLCQRPSGTSSGVCGNNNACKNQCIRLEKARHGSCNYVFPAHKCICYFPC; listed as Raphanus sativus) |  |  | >100 | 16.0 |  |  |  |  |  | 
yRs-AFP2/N37R (QKLCQRPSGTWSGVCGNNNACKNQCIRLEKARHGSCRYVFPAHKCICYFPC; listed as Raphanus sativus) | 80% | 100% | 7.0 | 2.8 |  |  |  |  |  | 
yRs-AFP2/T10G (QKLCQRPSGGWSGVCGNNNACKNQCIRLEKARHGSCNYVFPAHKCICYFPC; listed as Raphanus sativus) | <16% | 30% | >100 | 11.0 |  |  |  |  |  | 
yRs-AFP2/F49R (QKLCQRPSGTWSGVCGNNNACKNQCIRLEKARHGSCNYVFPAHKCICYRPC; listed as Raphanus sativus) | 22% | 18% | 23.0 | 22.0 |  |  |  |  |  | 
yRs-AFP2/S12R (QKLCQRPSGTWRGVCGNNNACKNQCIRLEKARHGSCNYVFPAHKCICYFPC; listed as Raphanus sativus) | 31% | 67% | 20.0 | 3.5 |  |  |  |  |  | 
yRs-AFP2/Q5M: yeast-expressed Rs-AFP2 isoform, position 5 glutamine to methionine (QKLCMRPSGTWSGVCGNNNACKNQCIRLEKARHGSCNYVFPAHKCICYFPC; listed as Raphanus sativus) | 100% | 100% | 5.4 | 4.1 |  |  | increased antifungal activity | little effect on the antifungal activity | enhanced activity | maintain their antifungal activity
yRs-AFP2/K44Q (QKLCQRPSGTWSGVCGNNNACKNQCIRLEKARHGSCNYVFPAHQCICYFPC; listed as Raphanus sativus) | 114% | 100% |  |  |  |  |  |  |  | 
yRs-AFP2/A42R (QKLCQRPSGTWSGVCGNNNACKNQCIRLEKARHGSCNYVFPRHKCICYFPC; listed as Raphanus sativus) | 26% | 44% | 18.0 | 4.2 |  |  |  |  |  | 
yRs-AFP2/F40M (QKLCQRPSGTWSGVCGNNNACKNQCIRLEKARHGSCNYVMPAHKCICYFPC; listed as Raphanus sativus) | 23% | 30% | 54.0 | 16.0 |  |  |  |  |  | 
yRs-AFP2/L28R (QKLCQRPSGTWSGVCGNNNACKNQCIRREKARHGSCNYVFPAHKCICYFPC; listed as Raphanus sativus) |  | 39% | >100 | 6.4 |  |  |  |  |  | 
